# Experimental data published in patent publication US20240041042A1, “1-(PYRIDYL)-5-AZINYLPYRAZOLE DERIVATIVES, AND THEIR USE FOR CONTROL OF UNDESIRED PLANT GROWTH” (Bayer Aktiengesellschaft, priority 2020, published 2024).
# Read-outs that look alike come from different tables or passages of the source.
# How the values were obtained:
# Assay type in all cases: in vivo
# [1] = tested on: Polygonum convolvulus (POLCO); assay: Pre-emergence herbicidal action against POLCO
# Method in brief: (§1)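 Greenhouse pot trial: seeds sown, soil-covered, sprayed before emergence with compound in water (0.5% additive; 600 l/ha; ≤320 g/ha). Scoring visual, ~3 weeks, 0–100% scale vs untreated.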
# [2] = tested on: Echinochloa crus-galli (ECHCG); assay: Pre-emergence herbicidal action against ECHCG; conditions: dosage 320 g/ha
# Method in brief: as §1
# [3] = tested on: Setaria viridis (SETVI); assay: Pre-emergence herbicidal action against SETVI; conditions: dosage 320 g/ha
# Method in brief: as §1
# [4] = tested on: Alopecurus myosuroides (ALOMY); assay: Pre-emergence herbicidal action against ALOMY; conditions: scored visually after about 3 weeks, 100% = plants have died
# Method in brief: as §1
# [5] = tested on: Brassica napus (BRSNW); assay: Post-emergence crop plant compatibility, BRSNW; conditions: effect in comparison to untreated controls
# Description: Seeds of monocotyledonous and dicotyledonous weeds and crop plants are placed in sandy loam in plastic or organic planting pots, covered with soil and cultivated in a greenhouse under controlled growth conditions. 2 to 3 weeks after sowing, the test plants are treated at the one-leaf stage. The compounds of the invention, formulated in the form of wettable powders (WP) or as emulsion concentrates (EC), are then sprayed onto the green parts of the plants as aqueous suspension or emulsion with addition of 0.5% additive at a water application rate of 600 l/ha (converted). After the test plants have been kept in the greenhouse under optimum growth conditions for about 3 weeks, the activity of the preparations is rated visually in comparison to untreated controls. For example, 100% activity=the plants have died, 0% activity=like control plants.
# The observed effects on selected crop plants are reported here in comparison to the untreated controls (values in %). The appendices “a”, “b” and “c” give differentiation by dosage used with otherwise the same crop plants tested.
# [6] = tested on: Setaria viridis (SETVI); assay: Post-emergence herbicidal action against SETVI
# Method in brief: (§2)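 Values are percent visual activity (0% like control, 100% plants dead) after about 3 weeks in the greenhouse. Treatment: post-emergence spray at one-leaf stage, 600 l/ha spray volume, 0.5% additive, doses 320 g/ha or lower.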
# [7] = tested on: Zea mays (ZEAMX); conditions: pre-emergence, crop plant compatibility, in comparison to untreated controls
# Method in brief: (§3)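 Scoring: visual, % of untreated control, about 3 weeks after a pre-emergence application to the soil surface. Application used WP or EC formulations diluted in water with 0.5% additive at 600 l/ha; dosage levels are marked by suffixes a, b and c.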
# [8] = tested on: Oryza sativa (ORYSA); conditions: crop plant compatibility
# Method in brief: (§4)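 Foliar application at the one-leaf stage: WP/EC formulation, 0.5% additive, 600 l/ha water. Greenhouse-grown in sandy loam. Endpoint is visual % injury relative to untreated controls at about 3 weeks.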
# [9] = tested on: Zea mays (ZEAMX); conditions: for Post-emergence action against ZEAMX in % (crop plant compatibility): 20 g/ha, effect in comparison to untreated controls; for Post-emergence action against ZEAMX in %: crop plant compatibility, effect vs untreated controls
# Method in brief: as §4
# [10] = tested on: Triticum aestivum (TRZAS); conditions: crop plant compatibility, effect vs untreated controls
# Method in brief: as §4
# [11] = tested on: Echinochloa crus-galli (ECHCG); assay: Post-emergence herbicidal action against ECHCG
# Method in brief: as §2
# [12] = tested on: Avena fatua (AVEFA); assay: Pre-emergence herbicidal action against AVEFA; conditions: 320 g/ha, visual scoring after about 3 weeks vs untreated controls
# Method in brief: as §1
# [13] = tested on: Amaranthus retroflexus (AMARE); assay: Pre-emergence herbicidal action against AMARE; conditions: visual scoring after about 3 weeks vs untreated controls
# Method in brief: as §1
# [14] = tested on: Viola tricolor (VIOTR); assay: Pre-emergence herbicidal action against VIOTR
# Method in brief: as §1
# [15] = tested on: Verconica persica (VERPE); assay: Pre-emergence herbicidal action against VERPE
# Method in brief: as §1
# [16] = tested on: Lolium rigidum (LOLRI); assay: Pre-emergence herbicidal action against LOLRI; conditions: dosage 320 g/ha
# Method in brief: as §1
# [17] = tested on: Brassica napus (BRSNW); conditions: crop plant compatibility, in comparison to untreated controls
# Method in brief: as §3
# [18] = tested on: Oryza sativa (ORYSA); conditions: pre-emergence, crop plant compatibility, in comparison to untreated controls
# Method in brief: as §3
# [19] = tested on: Triticum aestivum (TRZAS); conditions: pre-emergence, crop plant compatibility, in comparison to untreated controls
# Method in brief: as §3
# [20] = tested on: Pharbitis purpurea (PHBPU); assay: Post-emergence herbicidal action against PHBPU
# Method in brief: as §2
# [21] = tested on: Alopecurus myosuroides (ALOMY); assay: Post-emergence herbicidal action against ALOMY; conditions: visual rating about 3 weeks after treatment vs untreated controls (100% = plants have died, 0% = like control plants)
# Method in brief: as §2
# [22] = tested on: Lolium rigidum (LOLRI); assay: Post-emergence herbicidal action against LOLRI
# Method in brief: as §2
# [23] = tested on: Avena fatua (AVEFA); assay: Post-emergence herbicidal action against AVEFA; conditions: visual rating about 3 weeks after treatment
# Method in brief: as §2
# [24] = tested on: Verconica persica (VERPE); assay: Post-emergence herbicidal action against VERPE
# Method in brief: as §2
# [25] = tested on: Abutilon theophrasti (ABUTH); assay: Post-emergence herbicidal action against ABUTH; conditions: 320 g/ha, visual rating about 3 weeks after treatment vs untreated controls (100% = plants have died, 0% = like control plants)
# Method in brief: as §2
# [26] = tested on: Digitaria sanguinalis (DIGSA); assay: Post-emergence herbicidal action against DIGSA; conditions: 320 g/ha, visual rating about 3 weeks after treatment
# Method in brief: as §2
# [27] = tested on: Viola tricolor (VIOTR); assay: Post-emergence herbicidal action against VIOTR
# Method in brief: as §2
# [28] = tested on: Matricaria inodora (MATIN); assay: Post-emergence herbicidal action against MATIN; conditions: dosage 320 g/ha
# Method in brief: as §2
# [29] = tested on: Polygonum convolvulus (POLCO); assay: Post-emergence herbicidal action against POLCO; conditions: dosage 320 g/ha
# Method in brief: as §2
# [30] = tested on: Glycine max (GLXMA); conditions: pre-emergence, crop plant compatibility, in comparison to untreated controls
# Method in brief: as §3
# [31] = 20 g/ha, effect vs untreated controls
# [32] = 80 g/ha, effect in comparison to untreated controls
Compound,Post-emergence action against BRSNW in % ([5]; 20 g/ha),Post-emergence action against SETVI in % ([6]; dosage 80 g/ha),Pre-emergence action against ZEAMX in % ([7]; 80 g/ha),"Post-emergence action against ORYSA in % [8, 31]","Post-emergence action against ORYSA in % [8, 32]",Post-emergence action against ZEAMX in % (crop plant compatibility) [9],Post-emergence action against ZEAMX in % ([9]; 80 g/ha),Post-emergence action against TRZAS in % ([10]; 20 g/ha),Post-emergence action against ECHCG in % ([11]; dosage 80 g/ha),Post-emergence action against BRSNW in % ([5]; 80 g/ha),Pre-emergence action against BRSNW in % ([17]; 80 g/ha),Pre-emergence action against ORYSA in % ([18]; 80 g/ha),Pre-emergence action against ORYSA in % ([18]; 320 g/ha),Pre-emergence action against TRZAS in % ([19]; 80 g/ha),Pre-emergence action against TRZAS in % ([19]; 320 g/ha),Post-emergence action against TRZAS in % ([10]; 80 g/ha),Post-emergence action against ALOMY in % ([21]; 80 g/ha),further results
CCOC(=O)CCNC(=O)COc1nn(-c2ncccc2F)c(-c2ccc(OC)nc2)c1Br [Example I-47],10%,90%,20%,20%,20%,10%,10%,10%,80%,,,,,,,,,"Pre-emergence action against POLCO in % ([1]; dosage 80 g/ha): 80%; Pre-emergence action against POLCO in % ([1]; dosage 320 g/ha): 90%; Pre-emergence action against ECHCG in % [2]: 90%; Pre-emergence action against SETVI in % [3]: 100%; Pre-emergence action against ALOMY ([4]; 80 g/ha): 90%; Pre-emergence action against ALOMY ([4]; 320 g/ha): 90%; Pre-emergence action against AVEFA in % [12]: 90%; Pre-emergence action against AMARE in % ([13]; 80 g/ha): 100%; Pre-emergence action against AMARE in % ([13]; 320 g/ha): 100%; Pre-emergence action against VIOTR in % ([14]; 320 g/ha, Viola tricolor): 100%; Pre-emergence action against VIOTR in % ([14]; dosage 80 g/ha): 100%; Pre-emergence action against VERPE in % ([15]; dosage 320 g/ha): 90%; Pre-emergence action against LOLRI in % [16]: 100%"
O=C(O)C1CCN(C(=O)COc2nn(-c3ccccn3)c(-c3ccc(F)nc3)c2Br)CC1 [Example I-62],,,0%,,0%,,,,,20%,0%,0%,0%,0%,0%,0%,,"Post-emergence action against ORYSA in % ([8]; 320 g/ha, effect in comparison to untreated controls): 0%; Post-emergence action against ZEAMX in % ([9]; 320 g/ha): 20%; Post-emergence action against TRZAS in % ([10]; 320 g/ha): 0%"
O=C(COc1nn(-c2ncccc2F)c(-c2ccc(F)nc2)c1C1CC1)OCC1CCOC1 (stereo not drawn) [Example I-289],20%,90%,,0%,10%,0%,10%,20%,80%,,,,,,,,80%,"Post-emergence action against PHBPU in % ([20]; dosage 80 g/ha): 80%; Post-emergence action against PHBPU in % ([20]; dosage 320 g/ha): 80%; Post-emergence action against ALOMY in % ([21]; 320 g/ha): 90%; Post-emergence action against LOLRI in % ([22]; dosage 80 g/ha): 80%; Post-emergence action against LOLRI in % ([22]; dosage 320 g/ha): 90%; Post-emergence action against SETVI in % ([6]; dosage 320 g/ha): 90%; Post-emergence action against AVEFA in % ([23]; 80 g/ha): 80%; Post-emergence action against AVEFA in % ([23]; 320 g/ha): 90%; Post-emergence action against VERPE in % ([24]; 320 g/ha, VERPE): 80%; Post-emergence action against VERPE in % ([24]; dosage 80 g/ha): 80%; Post-emergence action against ABUTH in % [25]: 80%; Post-emergence action against DIGSA in % [26]: 80%; Post-emergence action against ECHCG in % ([11]; dosage 320 g/ha): 80%; Post-emergence action against VIOTR in % ([27]; 80 g/ha): 80%; Post-emergence action against VIOTR in % ([27]; 320 g/ha): 80%; Post-emergence action against MATIN in % [28]: 90%; Post-emergence action against POLCO in % [29]: 80%"
COC(=O)C1CCCN1C(=O)COc1nn(-c2ccccn2)c(-c2ccc(F)nc2)c1Br (stereo not drawn) [Example I-110],10%,,10%,0%,10%,10%,10%,0%,,20%,20%,10%,,,,,80%,Pre-emergence action against VERPE in % ([15]; dosage 80 g/ha): 100%
COC(=O)C1CCN(C(=O)COc2nn(-c3ccccn3)c(-c3ccc(F)nc3)c2Br)C1 (stereo not drawn) [Example I-109],0%,,10%,0%,0%,10%,10%,0%,,10%,10%,10%,10%,0%,10%,10%,,Pre-emergence action against BRSNW in % ([17]; 320 g/ha): 10%; Pre-emergence action against ZEAMX in % ([7]; 320 g/ha): 10%; Pre-emergence action against GLXMA in % ([30]; 80 g/ha): 20%; Pre-emergence action against GLXMA in % ([30]; 320 g/ha): 20%
